Reference: patent US20230365546A1, “5-SUBSTITUTED INDOLE 3-AMIDE DERIVATIVES, PREPARATION METHOD AND USE THEREOF” (ORIGIANT PHARMACEUTICAL CO., LTD, priority 2020, published 2023)
Where two headings read alike, the source gives them in different places.

Columns and labels:
RIPK1 = RIPK1 (Homo sapiens (Human), UniProt Q13546); experiment: In vitro kinase assay (Eurofins Kinase Profiler), IC50; format: biochemical; conditions: 0.001-10 μM, read-out: RIPK 1 (IC50)
HT-29 cells = experiment: Protection against programmed necrosis of HT-29 cells (TNF α/Smac mimetic/Z-VAD-FMK, CCK8); format: cell-based; conditions: Homo sapiens
[1] = system: RIPK1 autophosphorylation, phosphorylation of RIPK3 and MLKL; experiment: Regulation of RIPK1 signaling pathway (Western blot); format: cell-based; conditions: TNF α/Smac mimetic/Z-VAD-FMK induced, FIG. 4
Source text: TNF α was purchased from PeproTech Inc., Smac mimetic and Z-VAD-FMK was purchased from Selleck Inc., RIPA lysis buffer was purchased from Beyotime Institute of Biotechnology, cocktail was purchased from MedChemExpress (MCE) Limited, PMSF protease inhibitors, sodium dodecylsulfonate SDS, and glycine were purchased from Sigma Inc., acrylamide, tris(hydroxymethyl)aminomethane Tris, ammonium persulfate APS and N,N,N′,N′-tetramethyl ethylenediamine TEMED were purchased from Wuhan Servicebio Technology Co., Ltd.
Extraction of total cellular protein: after the cells were treated by adding the corresponding concentration of Compounds 94 and 46 or blank vehicle to the cell supernatant and induced with TNF α/Smac mimetic/Z-VAD-FMK combination for a certain period of time, the supernatant was discarded, followed by washing three times with pre-cooled PBS or normal saline, then an appropriate volume of RIPA lysis buffer (containing 1% cocktail and 1% PMSF protease inhibitor) was added, the mixture was immediately placed on ice horizontally for lysis of 15 min, then the cell lysis buffer was scraped with a scraper and transferred to a 1.5 ml EP tube, and the cells were disrupted with a sonicator. The tubes were then centrifuged in a low temperature high speed centrifuge (12000 rpm, 15 min) to remove cell debris. […]

TNF α-induced SIRS = experiment: TNF α-induced mouse SIRS model; format: in vivo; conditions: 40 mg/kg oral once before TNF α 500 μg/kg i.v.
Protocol: TNF α formulated in sterile normal saline was administered at a dose of 500 μg/kg by tail vein injection for modeling. The body temperature of the mice was measured by an infrared electric thermometer. The orally-administrated vehicle was 25% castor oil in ethanol and 75% normal saline. Compounds 94 and 46 and RIPK1 positive compound GSK2982772 were administered orally before modeling with a dose of 40 mg/kg. Body temperature and the survival of mice were recorded every hour and recorded for 24 h and 48 h after 11 h.
This experiment established a TNF α-induced SIRS mouse model to evaluate the in vivo activity of compounds of the present invention. TNF α formulated in sterile normal saline was administered to mice at a dose of 500 μg/kg by tail vein injection for modeling. Since the measurement of rectal temperature would cause mechanical injury to mice and may interfere with the experimental results, an infrared electric thermometer was used to measure the body temperature of mice and the survival condition was observed. Compounds 94 and 46 were administered at a dose of 40 mg/kg once prior to modeling. The Vehicle group was given the corresponding vehicle control.

[2] = In vivo pharmacokinetic study in rats; conditions: rat, plasma, oral, 10 mg/kg
Protocol: Blood was collected from rats at different times after administration at the following time points: 0.083 h, 0.25 h, 0.5 h, 1 h, 2 h, 4 h, 8 h, and 24 h after intravenous administration; 0.25 h, 0.5 h, 1 h, 2 h, 4 h, 6 h, 8 h, and 24 h after oral administration. About 0.20 mL of blood was collected via jugular vein or other suitable means for each sample at the corresponding time, with heparin sodium for anticoagulation; the blood sample was placed on ice after collection and centrifuged within 1 h to separate the plasma (centrifugation conditions: centrifugal force 6800 g, 6 min, 2-8° C.). The collected plasma samples were stored in a refrigerator at −80° C. before analysis, and the remaining plasma samples continued to be temporarily stored in the refrigerator at −80° C. for one month after analysis.
Pharmacokinetic parameters such as AUC (0-t), T1/2, Cmax, Tmax, and MRT were calculated using WinNonlin based on plasma concentration data at different time points. The plasma drug concentration-time curve was plotted with BLQ recorded as 0. For the calculation of pharmacokinetic parameters, the concentration before administration was calculated as 0; BLQ before Cmax (including “No peak”) was calculated as 0; no BLQ (including “No peak”) appeared after Cmax participated in the calculation. The experiment was completed by Shanghai Medicilon Inc.

DSS-induced colitis = experiment: DSS-induced mouse IBD model; conditions: 40 mg/kg oral from day 7 after 2.5% DSS
Protocol: Female C57BL/6 mice weighing 17-20 g were used. […] Fresh DSS solution was changed on Days 2, 4, and 6, respectively. […] The Control group was given normal drinking water daily and corresponding vehicles orally starting on day 7. Body weights and survival rates of mice were recorded daily. Survival curves were fitted using Graphpad Prism 5.0 software. Mice (2/group) were sacrificed on day 12 and observed for changes in colon length.

[3] = TNF α/Smac mimetic/Z-VAD-FMK induced 24 h, CCK8, read-out: HT-29 (EC50)

Chain of RIPK1 (Q13546 whole entry): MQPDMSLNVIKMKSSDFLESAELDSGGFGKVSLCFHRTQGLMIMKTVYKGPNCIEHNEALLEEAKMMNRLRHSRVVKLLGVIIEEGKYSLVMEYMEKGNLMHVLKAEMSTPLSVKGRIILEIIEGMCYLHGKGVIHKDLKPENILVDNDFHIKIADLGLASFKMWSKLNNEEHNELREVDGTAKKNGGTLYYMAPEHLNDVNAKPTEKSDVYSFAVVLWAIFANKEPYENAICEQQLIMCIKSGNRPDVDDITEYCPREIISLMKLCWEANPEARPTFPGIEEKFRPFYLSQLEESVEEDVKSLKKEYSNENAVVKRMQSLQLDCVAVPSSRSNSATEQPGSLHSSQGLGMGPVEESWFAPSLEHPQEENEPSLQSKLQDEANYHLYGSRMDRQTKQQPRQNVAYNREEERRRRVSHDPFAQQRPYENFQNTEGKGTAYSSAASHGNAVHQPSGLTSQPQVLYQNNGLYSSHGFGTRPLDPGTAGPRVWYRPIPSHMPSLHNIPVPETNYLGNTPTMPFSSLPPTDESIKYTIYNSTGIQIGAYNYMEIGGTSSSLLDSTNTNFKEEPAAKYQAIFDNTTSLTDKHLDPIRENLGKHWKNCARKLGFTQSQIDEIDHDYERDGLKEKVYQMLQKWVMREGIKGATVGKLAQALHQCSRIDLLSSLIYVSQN

Compound	IC50 (RIPK1) [nM]	EC50 (HT-29 cells; [3]) [nM]	EC50 (HT-29 cells; TSZ-induced, FIG. 3, read-out: EC50 value, programmed necrosis model of HT-29) [nM]	Effect on necrotic signaling pathway (RIPK1 autophosphorylation, RIPK3 and MLKL phosphorylation) [1]	Overall mortality (TNF α-induced SIRS; compared with Vehicle group)	Body temperature of mice (TNF α-induced SIRS; within 11 h)	AUC(0-t) [2] [ng·h/mL]	Cmax [2] [ng/mL]	Tmax [2] [h]	bioavailability [2] [%]	half-life [2] [h]	Death of mice (DSS-induced colitis)	Body weight of mice (DSS-induced colitis; FIG. 6)
C[C@H](NC(=O)c1cn(C)c2ccc(-c3ccc4nc(NC(=O)C5CC5)sc4c3)cc12)c1cccc(F)c1 [Compound 46]	10 to 100	< 1	0.07	affected the phosphorylation of RIPK3 and MLKL downstream of RIPK1 by inhibiting its autophosphorylation	significantly reduced	relatively normal	–	–	–	–	–	–	–
Cn1cc(C(=O)N2CCCC2c2cccc(F)c2)c2cc(-c3ccn4nc(NC(=O)C5CC5)nc4c3)ccc21 (stereo not drawn) [Compound 168]	10 to 100	< 1	–	–	–	–	15300	6360	0.33	60.9	3.1	–	–
Cn1cc(C(=O)N2CCC[C@H]2c2ccc(F)cc2)c2cc(-c3ccn4nc(NC(=O)C5CC5)nc4c3)ccc21 [Compound 174]	1 to 10	< 1	–	–	–	–	11500	3840	0.42	35	1.99	–	–
Cn1cc(C(=O)N2CCC[C@H]2c2ccc(F)c(F)c2)c2cc(-c3ccn4nc(NC(=O)C5CC5)nc4c3)ccc21 [Compound 191]	< 1	< 1	–	–	–	–	4560	2130	0.33	20.4	4.67	–	–
Cn1cc(C(=O)N2CCC[C@H]2c2cccc(Cl)c2)c2cc(-c3ccn4nc(NC(=O)C5CC5)nc4c3)ccc21 [Compound 193]	10 to 100	10 to 100	–	–	–	–	14800	2880	2.25	31.7	2.74	–	–
GSK3145095 [reference compound]	–	–	–	–	–	–	–	–	–	–	–	occurrence of murine death	continuous declination in body weight
